Assay: Phase 1 multiple ascending dose, dose titration study with healthy subjects (adverse events, tolerated dose)
Format: in vivo, human
Method: This study was a phase 1, randomized, double-blind, placebo-controlled, multiple-dose, dose titration study. A titration interval of 6 days was employed, with each dose being administered for at least 5 days. One goal was to determine the effect of dose titration on adverse effects.
In each of two subject cohorts, Cohort 1 and Cohort 2, subjects were treated at each dose level for duration of 5 days with exception of the last dose level which included 7 days of treatment.
The protocol was amended to provide for an additional cohort, Cohort 3, in order to evaluate a different dose escalation regimen, as disclosed below.
Cohorts 1 and 2: Two groups of 15 subjects were enrolled and randomized to receive placebo (5 subjects per Cohort) or a starting dose of 0.05 mg Compound 1 (10 subjects per Cohort) on Day I. Once daily (q.d.) dosing continued through 5 days. If tolerated, the next dose escalation (placebo or 0.1 mg q.d. Compound 1) occurred on Day 6 and this dose was administered daily through Day 10.
Subsequent dose escalations were to occur in the same manner every 6th day for up to 3 additional dose escalations if tolerated (placebo or 0.2, 0.3, and 0.4 mg Compound 1) with the final dose maintained for a duration of 7 days. The dose could be decreased (“de-escalated”) or increased (“re-escalated”) based on assessment of safety and tolerability.
Cohort 3: One group of 25 subjects (S placebo and 20 active) were enrolled and randomized to receive a starting dose of 0.01 mg Compound 1 twice daily or placebo on Day 1. Twice daily dosing continued through 5 days. If tolerated, the next dose escalation (placebo or Compound 1 0.02 mg twice daily) occurred on Day 6 and this dose was administered daily through Day 10. Subsequent dose escalations were to occur in the same manner every 6th day for up to 4 additional dose escalations if tolerated (placebo or 0.03, 0.04. 0.05, and 0.07 mg twice daily Compound 1). The dose could be decreased (“de-escalated”) or increased (“re-escalated”) based on assessment of safety and tolerability. The doses tested in this cohort were 0.01, 0.02, 0.03, 0.04, 0.05, and 0.07 mg administered twice daily for a total daily dose of 0.02, 0.04, 0.06, 0.08, 0.1, and 0.14 mg, respectively.
Compound 1 capsules were provided as 0.01 mg (all Cohorts) and 0.1 mg (Cohorts 1 and 2 only) strengths.

[1] = Cohort 3, twice daily, 0.07 mg (N = 4)
[2] = Cohort 3, twice daily, Total (all doses) (N = 20)
[3] = Cohorts 1 and 2, once daily, 0.03 mg (N = 4)
[4] = Cohorts 1 and 2, once daily, 0.05 mg (N = 20)
[5] = Cohorts 1 and 2, once daily, 0.1 mg (N = 16)
[6] = Cohorts 1 and 2, once daily, 0.2 mg (N = 5)
[7] = Cohorts 1 and 2, once daily, 0.3 mg (N = 1)
[8] = Cohorts 1 and 2, once daily, 0.4 mg (N = 1)
[9] = Cohorts 1 and 2, once daily, Total (all doses) (N = 20)
[10] = Cohorts 1 and 2, 0.05 mg once daily

## O=C(O)COC[C@H]1CC[C@H](COC(=O)N(c2ccccc2)c2ccc(Cl)cc2)CC1 [Compound 1, 2-(((1r,4r)-4-(((4-chlorophenyl)(phenyl)carbamoyloxy)methyl)cyclohexyl)methoxy)acetic acid]
[1]
  Adverse Events (no. of subjects) leading to Decrease of Dose: Priapism: 0 subjects
  Adverse Events (no. of subjects) leading to Decrease of Dose: Vomiting: 0 subjects
[2]
  Adverse Events (no. of subjects) leading to Decrease of Dose: Abdominal pain: 2 subjects
  Adverse Events (no. of subjects) leading to Decrease of Dose: Arthralgia: 2 subjects
  Adverse Events (no. of subjects) leading to Decrease of Dose: Chest discomfort: 1 subjects
  Adverse Events (no. of subjects) leading to Decrease of Dose: Chest pain: 1 subjects
  Adverse Events (no. of subjects) leading to Decrease of Dose: Diarrhoea: 2 subjects
  Adverse Events (no. of subjects) leading to Decrease of Dose: Dizziness: 3 subjects
  Adverse Events (no. of subjects) leading to Decrease of Dose: Headache: 10 subjects
  Adverse Events (no. of subjects) leading to Decrease of Dose: Jaw pain: 1 subjects
  Adverse Events (no. of subjects) leading to Decrease of Dose: Myalgia: 4 subjects
  Adverse Events (no. of subjects) leading to Decrease of Dose: Nausea: 5 subjects
  Adverse Events (no. of subjects) leading to Decrease of Dose: Palpitations: 1 subjects
  Adverse Events (no. of subjects) leading to Decrease of Dose: Priapism: 1 subjects
  Adverse Events (no. of subjects) leading to Decrease of Dose: Vomiting: 1 subjects
Cohort 3, 0.01 mg twice daily
  Tolerability of the starting dose: all of the subjects were able to tolerate
Cohort 3, 0.02 mg twice daily
  Tolerability of the first escalation: all of the subjects were able to tolerate
Cohort 3, 0.03 mg twice daily
  Subjects who completed the study at the dose: Five
Cohort 3, 0.04 mg twice daily
  Subjects able to escalate to the dose level through study completion: Two
Cohort 3, 0.05 mg
  Subjects able to escalate to the dose level through study completion: Five
Cohort 3, 0.07 mg twice daily
  Tolerability of the dose: tolerated through study completion
Cohort 3, 0.07 mg twice daily, highest dose level
  Subjects able to escalate to the dose: Two
Cohort 3, Day 20
  Subjects who discontinued treatment due to an adverse event: One
Cohorts 1 and 2
  Subjects who received 0.03 mg as highest dose for at least 3 days: 0.03 mg-17 subjects
  Subjects who received 0.1 mg as highest dose for at least 3 days: 0.1 mg-8 subjects
  Subjects who received 0.2 mg as highest dose for at least 3 days: 0.2 mg-1 subjects
  Subjects who received 0.30 mg as highest dose for at least 3 days: 0.30 mg-1 subject
  Subjects with Final Compound 1 Total Daily Dose of 0.03 mg: 0.03 mg-3 subjects
  Subjects with Final Compound 1 Total Daily Dose of 0.05 mg: 0.05 mg-9 subjects
  Subjects with Final Compound 1 Total Daily Dose of 0.10 mg: 0.10 mg-7 subjects
  Subjects with Final Compound 1 Total Daily Dose of 0.30 mg: 0.30 mg-1 subject
[3]
  Adverse Events (no. of subjects) leading to Decrease of Dose: Chest pain: 0 subjects
  Adverse Events (no. of subjects) leading to Decrease of Dose: Diarrhoea: 0 subjects
  Adverse Events (no. of subjects) leading to Decrease of Dose: Erythema: 0 subjects
  Adverse Events (no. of subjects) leading to Decrease of Dose: Headache: 0 subjects
  Adverse Events (no. of subjects) leading to Decrease of Dose: Jaw pain: 0 subjects
  Adverse Events (no. of subjects) leading to Decrease of Dose: Nausea: 0 subjects
  Adverse Events (no. of subjects) leading to Decrease of Dose: Vomiting: 0 subjects
[4]
  Adverse Events (no. of subjects) leading to Decrease of Dose: Chest pain: 0 subjects
  Adverse Events (no. of subjects) leading to Decrease of Dose: Diarrhoea: 1 subjects
  Adverse Events (no. of subjects) leading to Decrease of Dose: Erythema: 0 subjects
  Adverse Events (no. of subjects) leading to Decrease of Dose: Headache: 2 subjects
  Adverse Events (no. of subjects) leading to Decrease of Dose: Jaw pain: 0 subjects
  Adverse Events (no. of subjects) leading to Decrease of Dose: Nausea: 1 subjects
  Adverse Events (no. of subjects) leading to Decrease of Dose: Vomiting: 4 subjects
[5]
  Adverse Events (no. of subjects) leading to Decrease of Dose: Chest pain: 1 subjects
  Adverse Events (no. of subjects) leading to Decrease of Dose: Diarrhoea: 0 subjects
  Adverse Events (no. of subjects) leading to Decrease of Dose: Erythema: 0 subjects
  Adverse Events (no. of subjects) leading to Decrease of Dose: Headache: 5 subjects
  Adverse Events (no. of subjects) leading to Decrease of Dose: Jaw pain: 1 subjects
  Adverse Events (no. of subjects) leading to Decrease of Dose: Nausea: 1 subjects
  Adverse Events (no. of subjects) leading to Decrease of Dose: Vomiting: 2 subjects
[6]
  Adverse Events (no. of subjects) leading to Decrease of Dose: Chest pain: 0 subjects
  Adverse Events (no. of subjects) leading to Decrease of Dose: Diarrhoea: 0 subjects
  Adverse Events (no. of subjects) leading to Decrease of Dose: Erythema: 0 subjects
  Adverse Events (no. of subjects) leading to Decrease of Dose: Headache: 1 subjects
  Adverse Events (no. of subjects) leading to Decrease of Dose: Jaw pain: 0 subjects
  Adverse Events (no. of subjects) leading to Decrease of Dose: Nausea: 2 subjects
  Adverse Events (no. of subjects) leading to Decrease of Dose: Vomiting: 2 subjects
[7]
  Adverse Events (no. of subjects) leading to Decrease of Dose: Chest pain: 0 subjects
  Adverse Events (no. of subjects) leading to Decrease of Dose: Diarrhoea: 0 subjects
  Adverse Events (no. of subjects) leading to Decrease of Dose: Erythema: 0 subjects
  Adverse Events (no. of subjects) leading to Decrease of Dose: Headache: 0 subjects
  Adverse Events (no. of subjects) leading to Decrease of Dose: Jaw pain: 0 subjects
  Adverse Events (no. of subjects) leading to Decrease of Dose: Nausea: 0 subjects
  Adverse Events (no. of subjects) leading to Decrease of Dose: Vomiting: 0 subjects
[8]
  Adverse Events (no. of subjects) leading to Decrease of Dose: Chest pain: 0 subjects
  Adverse Events (no. of subjects) leading to Decrease of Dose: Diarrhoea: 0 subjects
  Adverse Events (no. of subjects) leading to Decrease of Dose: Erythema: 1 subjects
  Adverse Events (no. of subjects) leading to Decrease of Dose: Headache: 0 subjects
  Adverse Events (no. of subjects) leading to Decrease of Dose: Jaw pain: 0 subjects
  Adverse Events (no. of subjects) leading to Decrease of Dose: Nausea: 0 subjects
  Adverse Events (no. of subjects) leading to Decrease of Dose: Vomiting: 0 subjects
[9]
  Adverse Events (no. of subjects) leading to Decrease of Dose: Chest pain: 1 subjects
  Adverse Events (no. of subjects) leading to Decrease of Dose: Diarrhoea: 1 subjects
  Adverse Events (no. of subjects) leading to Decrease of Dose: Erythema: 1 subjects
  Adverse Events (no. of subjects) leading to Decrease of Dose: Headache: 8 subjects
  Adverse Events (no. of subjects) leading to Decrease of Dose: Jaw pain: 1 subjects
  Adverse Events (no. of subjects) leading to Decrease of Dose: Nausea: 4 subjects
  Adverse Events (no. of subjects) leading to Decrease of Dose: Vomiting: 8 subjects
[10]
  Subjects unable to tolerate the starting dose (number): three
  Subjects unable to tolerate the starting dose (percent): 15%
Cohorts 1 and 2, 0.2 mg once daily
  Subjects who tolerated the dose: One
Cohorts 1 and 2, 0.4 mg once daily, highest dose administered (one subject)
  Tolerability of the dose: not tolerated
Cohorts 1 and 2, Day 1
  Subjects who withdrew: One
Within the Compound 1 group
  AEs considered moderate in intensity: 95%
  AEs deemed by the investigator to be probably related to study drug: 90%
